The values below are quoted from earlier work in patent publication US10729636B2, “Compositions comprising peptide [sequence]” (NURITAS LIMITED, priority 2016, dated 2020).

The conditions of series [1]: cited from earlier work.
The subject of another series is lipoproteins. The note with it: binding to lipoproteins; cited from earlier work.
The conditions of series [2]: humans who took more vitamin E on a regular basis vs those who took less; study on nurses; cited from earlier work.

Like-named read-outs stand apart in the source and are kept apart here.

In general, half-life refers to how long it takes for the measured level to halve. `CCNC(=O)[C@@H]1CCCN1C(=O)[C@H](CCCNC(=N)N)NC(=O)[C@H](CC(C)C)NC(=O)[C@@H](COC(C)(C)C)NC(=O)[C@H](Cc1ccc(O)cc1)NC(=O)[C@H](CO)NC(=O)[C@H](Cc1c[nH]c2ccccc12)NC(=O)[C@H](Cc1cnc[nH]1)NC(=O)[C@@H]1CCC(=O)N1` [buserelin]: the half-life entry in series [1] (in words) is listed as “much longer”. For orientation: fraction unbound means the share of the substance not bound to proteins or other matrix. With `C[C@@H](O)[C@@H]1NC(=O)[C@H](CCCCN)NC(=O)[C@@H](Cc2c[nH]c3ccccc23)NC(=O)[C@H](Cc2ccccc2)NC(=O)[C@@H](NC(=O)[C@H](N)Cc2ccccc2)CSSC[C@@H](C(=O)N[C@H](CO)[C@@H](C)O)NC1=O` [octreotide], the half-life result in series [1] (in humans) is reported as “about 100 min”. In addition, the fraction unbound in the series on lipoproteins was 0.65. Consider `NC(=O)CC[C@@H]1NC(=O)[C@H](Cc2ccccc2)NC(=O)[C@H](Cc2ccc(O)cc2)NC(=O)[C@@H](N)CSSC[C@@H](C(=O)N2CCC[C@H]2C(=O)N[C@@H](CCCN=C(N)N)C(=O)NCC(N)=O)NC(=O)[C@H](CC(N)=O)NC1=O` [vasopressin], for which, in series [1] (in humans), the half-life is 10 to 35 min. As to gonadotropin-releasing hormone, the half-life result in series [1] (in words) is “very short”.

As to vitamin E, the “lower incidence of heart disease” value in series [2] was 41%.
